# Like-named read-outs stand apart in the source and are kept apart here.
# Molecular target: T1, recombinant full-length HSET (Homo sapiens, UniProt Q9BW19)
# T1 construct: 5 nM full-length human N-terminal His-tag HSET; His-tag (N)
# T1 sequence (Q9BW19 1-673): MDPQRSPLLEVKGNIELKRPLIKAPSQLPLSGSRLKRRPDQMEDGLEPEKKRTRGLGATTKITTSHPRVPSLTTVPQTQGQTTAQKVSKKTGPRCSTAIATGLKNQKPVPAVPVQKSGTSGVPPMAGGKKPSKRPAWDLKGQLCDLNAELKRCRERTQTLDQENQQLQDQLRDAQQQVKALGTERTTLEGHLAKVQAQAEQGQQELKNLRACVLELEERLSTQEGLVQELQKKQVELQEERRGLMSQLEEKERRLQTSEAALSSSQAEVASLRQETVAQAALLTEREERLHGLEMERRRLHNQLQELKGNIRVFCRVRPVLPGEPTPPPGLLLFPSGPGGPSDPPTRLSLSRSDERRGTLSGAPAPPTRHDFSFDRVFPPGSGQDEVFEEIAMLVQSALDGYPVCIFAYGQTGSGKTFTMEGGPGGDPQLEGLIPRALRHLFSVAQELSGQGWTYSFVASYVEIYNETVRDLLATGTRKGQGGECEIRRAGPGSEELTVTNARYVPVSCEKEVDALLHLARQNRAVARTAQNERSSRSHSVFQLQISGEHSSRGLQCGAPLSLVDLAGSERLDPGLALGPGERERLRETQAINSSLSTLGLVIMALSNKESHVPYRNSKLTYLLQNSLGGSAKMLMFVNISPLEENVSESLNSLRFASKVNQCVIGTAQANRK
# Assay: ADP-Glo HSET assay (3 μM ATP), microtubule-stimulated ATPase
# Assay type: biochemical
# Details: for HSET inhibitory activity (in words): HSET ADP-Glo
# Protocol: The HSET or Eg5 ATPase activity was measured using the ADP-Glo Kinase Assay kit (Promega, V9102). The assays were run using final concentrations of 5 nM full-length human N-terminal His-tag HSET or 4 nM GST-tagged Eg5 motor domain protein (Cytoskeleton, EG01) and an assay buffer containing 20 mM HEPES pH 6.8, 10 mM MgCl2, 0.25 mM EGTA, 0.4 mM Triton X-100, and 1 mM DTT. Preformed microtubules (Universal Biologicals Cambridge, bovine MT001-XL, or porcine MT002-XL), which were reconstituted in 15 mM PIPES pH 7, 1 mM MgCl2, and 20 μM paclitaxel, were present at a final assay concentration of 70 μg/mL. A reaction volume of 5 μL was used in Proxiplate 384 plus white assay plates (PerkinElmer, 6008280). To measure compound inhibition, 100 nL of compound dissolved in DMSO or DMSO alone was preincubated with the HSET and microtubules for 10 min before 3 μM Ultra-Pure ATP was added to start the ATPase reaction for the 3 μM ATP HSET assay. For the 500 μM ATP HSET assay, the addition of 500 μM Ultra-Pure ATP was used. For the Eg5 ATPase assay, 4.8 μM Ultra-Pure ATP was used. All reactions were incubated at 25 °C for 80 min and then stopped by the addition of 5 μL of the ADP-Glo reagent. 10 μL of Kinase Detection Reagent was then added after a further 45 min of incubation. The luminescence was read after 45 min on a PheraStar FSX plate reader (BMG Labtech). The data processing was performed using Dotmatics Studies software package. Percentage inhibition was determined based on normalization to high controls (0% inhibition, all reagents with 100 nL of DMSO alone) and low controls (100% inhibition […], without HSET). The IC50 values for each compound were determined using a four-parameter logistic curve fit of % inhibition versus concentration.
# [1] = LE = −1.4Log(IC50 [M])/number of non-hydrogen atoms (Table 1)
# [2] = LLE = −Log(IC50 [M]) – cLogP (MoKa) (Table 1)
# [3] = preformed microtubules, 3 μM ATP, mean (±SD) n ≥ 3, >200 from a single determination (Table 1), read-out: HSET ADP-Glo IC50
# [4] = preformed microtubules, 3 μM ATP, mean (±SD) n ≥ 3, >200 from a single determination (Table 2), read-out: HSET ADP-Glo IC50
# [5] = LE = −1.4Log(IC50 [M])/number of non-hydrogen atoms (Table 2)
# [6] = LLE = −Log(IC50 [M]) – cLogP (MoKa) (Table 2)
SMILES,LE [1],LLE [2],IC50 [3] [µM],HSET inhibitory activity (in words),IC50 [4] [µM],also measured
"CCOC(=O)c1sc(NC(=O)CCNC(=O)c2ccccc2C)nc1C [Compound 3, Ethyl 4-methyl-2-(3-(2-methylbenzamido)propanamido)thiazole-5-carboxylate]",–,–,–,–,–,"inhibition at 200 µM (200μM compound, 3 μM ATP, single determination): 52%; fold reduction in HSET potency (relative to 2): seventy-fold"
"CCOC(=O)c1sc(NC(=O)CCNC(=O)c2ccc(C)cc2)nc1C [Compound 4, Ethyl 4-Methyl-2-(3-(4-methylbenzamido)propanamido)thiazole-5-carboxylate]",0.29,2.2,4.73,–,–,"IC50 (3 μM ATP, curve plateaued, read-out: mean concentration observed at 50% inhibition (HSET ADP-Glo)): 13 µM"
"CCOC(=O)c1sc(NC(=O)CCNC(=O)c2cccc(CC)c2)nc1C [Compound 5, Ethyl 2-(3-(3-Ethylbenzamido)propanamido)-4-methylthiazole-5-carboxylate]",0.29,2.2,2.32,–,–,–
"CCOC(=O)c1sc(NC(=O)CCNC(=O)c2cccc(Cl)c2)nc1C [Compound 6, Ethyl 2-(3-(3-Chlorobenzamido)propanamido)-4-methylthiazole-5-carboxylate]",–,–,> 200,ablated the activity,–,–
"CCNC(=O)c1sc(NC(=O)CCNC(=O)c2cccc(C)c2)nc1C [Compound 7, N-Ethyl-4-methyl-2-(3-(3-methylbenzamido)propanamido)thiazole-5-carboxamide]",–,–,> 200,no activity,–,–
"CCOC(=O)c1sc(NC(=O)CCNC(C)=O)nc1C [Compound 8, ethyl 2-(3-acetamidopropanamido)-4-methylthiazole-5-carboxylate]",–,–,> 200,ablated the activity,–,–
"CCOC(=O)c1sc(NC(=O)CCNC(=O)c2ccccc2)nc1C [Compound 9, Ethyl 2-(3-Benzamidopropanamido)-4-methylthiazole-5-carboxylate]",–,–,> 200,ablated the activity,–,–
"CCOC(=O)c1sc(NC(=O)CCNC(=O)C2CCCC(C)C2)nc1C (stereo not shown) [Compound 10, Ethyl 4-Methyl-2-(3-(3-methylcyclohexane-1-carboxamido)propanamido)thiazole-5-carboxylate]",–,–,> 200,ablated the activity,–,–
"CCOC(=O)c1sc(NC(=O)CCNC(=O)c2cccc(OC)c2)nc1C [Compound 11, Ethyl 2-(3-(3-Methoxybenzamido)propanamido)-4-methylthiazole-5-carboxylate]",0.28,2.8,3.54,–,–,–
"CCOC(=O)c1sc(NC(=O)CCNC(=O)c2cccc(-c3ccccc3)c2)nc1C [Compound 12, Ethyl 2-(3-([1,1′-Biphenyl]-3-carboxamido)propanamido)-4-methylthiazole-5-carboxylate]",0.25,1.2,2.44,–,–,–
"CCOC(=O)c1sc(NC(=O)CCNC(=O)c2cccc(-c3n[nH]c(C)n3)c2)nc1C [Compound 15, Ethyl 4-Methyl-2-(3-(3-(5-methyl-1H-1,2,4-triazol-3-yl)benzamido)propanamido)thiazole-5-carboxylate]",–,–,> 200,eliminated potency,–,–
"CCOC(=O)c1sc(NC(=O)CCNC(=O)c2cccc(-c3nnc(C)o3)c2)nc1C [Compound 16, Ethyl 4-Methyl-2-(3-(3-(5-methyl-1,3,4-oxadiazol-2-yl)benzamido)propanamido)thiazole-5-carboxylate]",0.3,4.4,0.26,–,–,–
"CCOC(=O)c1sc(NC(=O)CCNC(=O)c2cccc(-c3nc(C)no3)c2)nc1C [Compound 17, Ethyl 4-Methyl-2-(3-(3-(3-methyl-1,2,4-oxadiazol-5-yl)benzamido)propanamido)thiazole-5-carboxylate]",0.32,4.3,0.101,–,–,–
"CCOC(=O)c1cnc(NC(=O)CCNC(=O)c2cccc(-c3noc(C)n3)c2)s1 [Compound 19, Ethyl 2-(3-(3-(5-Methyl-1,2,4-oxadiazol-3-yl)benzamido)propanamido)thiazole-5-carboxylate]",–,–,–,–,–,"inhibition at 4 µM (4μM compound, 3 μM ATP): 50%; fold reduction in HSET potency (relative to 13): 65 fold; IC50 (supplementary CSV, read-out: HSET ADP-Glo IC50): > 4 µM"
"CCOC(=O)c1sc(NC(=O)CCN(C)C(=O)c2cccc(-c3noc(C)n3)c2)nc1C [Compound 24, Ethyl 4-Methyl-2-(3-(N-methyl-3-(5-methyl-1,2,4-oxadiazol-3-yl)benzamido)propanamido)thiazole-5-carboxylate]",–,–,–,–,44.4,LE [5]: 0.19; LLE [6]: 2.1; fold reduction in HSET potency (relative to 13): 700 fold

# Second part, led by results:
LE [1],LLE [2],IC50 [3] [µM],HSET inhibitory activity (in words),IC50 [4] [µM],SMILES,also measured
0.25,2.8,2.1,–,–,"CCOC(=O)c1sc(NC(=O)CCNC(=O)c2cccc(-c3noc(CC)n3)c2)nc1C [Compound 14, Ethyl 2-(3-(3-(5-Ethyl-1,2,4-oxadiazol-3-yl)benzamido)propanamido)-4-methylthiazole-5-carboxylate]",fold reduction in HSET potency (relative to 13): 33 fold
–,–,–,–,> 200,"Cc1csc(NC(=O)CCNC(=O)c2cccc(-c3noc(C)n3)c2)n1 [Compound 20, 3-(5-Methyl-1,2,4-oxadiazol-3-yl)-N-(3-((4-methylthiazol-2-yl)amino)-3-oxopropyl)benzamide]",fold reduction in HSET potency (relative to 13): 3000 fold
–,–,–,abolished the HSET activity,> 200,"CCOC(=O)c1sc(NC(=O)CNC(=O)c2cccc(-c3noc(C)n3)c2)nc1C [Compound 21, Ethyl 4-Methyl-2-(2-(3-(5-methyl-1,2,4-oxadiazol-3-yl)benzamido)acetamido)thiazole-5-carboxylate]",–
–,–,–,abolished the HSET activity,> 200,"CCOC(=O)c1sc(NC(=O)CCCNC(=O)c2cccc(-c3noc(C)n3)c2)nc1C [Compound 22, Ethyl 4-Methyl-2-(4-(3-(5-methyl-1,2,4-oxadiazol-3-yl)benzamido)butanamido)thiazole-5-carboxylate]",–
–,–,–,–,0.089,"CCOC(=O)c1sc(N(C)C(=O)CCNC(=O)c2cccc(-c3noc(C)n3)c2)nc1C [Compound 23, Ethyl 4-Methyl-2-(N-methyl-3-(3-(5-methyl-1,2,4-oxadiazol-3-yl)benzamido)propanamido)thiazole-5-carboxylate]",LE [5]: 0.31; LLE [6]: 4.6
–,–,–,–,0.405,"CCOC(=O)c1sc(C(=O)NCCNC(=O)c2cccc(-c3noc(C)n3)c2)nc1C [Compound 25, Ethyl 4-Methyl-2-((2-(3-(5-methyl-1,2,4-oxadiazol-3-yl)benzamido)ethyl)carbamoyl)thiazole-5-carboxylate]",LE [5]: 0.29; LLE [6]: 3.9; fold reduction in HSET potency (relative to 13): six-fold
–,–,–,–,11.5,"CCOC(=O)c1ccc(NC(=O)CCNC(=O)c2cccc(-c3noc(C)n3)c2)nc1C [Compound 27, Ethyl 2-Methyl-6-(3-(3-(5-methyl-1,2,4-oxadiazol-3-yl)benzamido)propanamido)nicotinate]",LE [5]: 0.22; LLE [6]: 2.5; fold reduction in HSET potency (relative to 13): greater than 180 fold

# — paper PMC9969401, “Discovery of 2-(3-Benzamidopropanamido)thiazole-5-carboxylate Inhibitors of the Kinesin HSET (KIFC1) and the Development of Cellular Target Engagement Probes” (Journal of Medicinal Chemistry, 2023)
